In the case of `Cc1ccc2c(c1)C(C(F)(F)F)(C(F)(F)F)OI2Br` [Compound 5a, 1-Bromo-1,3-dihydro-5-methyl-3,3-bis(trifluoromethyl)-1,2-benziodoxole], the melting point is reported as 189 to 190 °C.

From US9290421B2, “Hypervalent radioactive astatine or iodine compounds, and preparation methods thereof” (Institut National de la Santé de la Recherche Medicalé, priority 2010, dated 2016)
